pIC50: −log10 of the molar value.
Tests used:
[1] = test system: A549 (human lung cancer cells); experiment: Anticancer activity, WST-8 viable cell assay, A549; assay type: cell-based; settings: 48 hours culture, mean of three experiments, read-out: IC50 (50% cell growth inhibitory concentration)
Method: (§1) As a control, cisplatin was tested in the same way.
(§2) A549 (human lung cancer cells), NCI-H460 (human lung cancer cells), MKN45 (human gastric cancer cells), NCI-N87 (human gastric cancer cells), A2780 (human ovarian cancer cells), A2780cis (human ovarian cancer cells, cisplatin-resistant cells) were used as cancer cells, and cultured in Roswell Park Memorial Institute medium (RPMI1640) supplemented with 10 volume % fetal bovine serum and 100 Units/mL penicillin and 100 μg/mL streptomycin under 5 volume % carbon dioxide atmosphere by wet incubation at 37° C.
(§3) Cells were washed with phosphate buffered saline (PBS), the cell count was calculated, and then 5×10^4 cells/ml suspension was prepared using the same medium. The suspension was added to a sterile 96-well microplate at a density of 2500 cells/well.
(§4) Thereafter, viable cell counts were evaluated by WST-8 assay. In other words, a solution of water-soluble tetrazolium salt WST-8 was added, and then the cells were cultured in an incubator for 1 hour. Absorbance at 450 nm of water-soluble formazan generated by enzymatic activity of mitochondria in cells was measured with a microplate reader (Spectra Max PLUS; Molecular Devices). This was evaluated as viable cell counts, and 50% cell growth inhibitory concentration (IC50) was calculated. It should be noted that the mean of the values of three experiments performed in the same way was adopted for the calculation of IC50 value.

[2] = test system: NCI-H460 (human lung cancer cells); experiment: Anticancer activity, WST-8 viable cell assay, NCI-H460; assay type: cell-based; settings: 48 hours culture, mean of three experiments, read-out: IC50 (50% cell growth inhibitory concentration)
Method: as §1, §2, §3, §4

[3] = test system: MKN45 (human gastric cancer cells); experiment: Anticancer activity, WST-8 viable cell assay, MKN45; assay type: cell-based; settings: 48 hours culture, mean of three experiments, read-out: IC50 (50% cell growth inhibitory concentration)
Method: as §1, §2, §3, §4

[4] = test system: NCI-N87 (human gastric cancer cells); experiment: Anticancer activity, WST-8 viable cell assay, NCI-N87; assay type: cell-based; settings: 48 hours culture, mean of three experiments, read-out: IC50 (50% cell growth inhibitory concentration)
Method: as §1, §2, §3, §4

[5] = test system: A2780 (human ovarian cancer cells); experiment: Anticancer activity, WST-8 viable cell assay, A2780; assay type: cell-based; settings: 48 hours culture, mean of three experiments, read-out: IC50 (50% cell growth inhibitory concentration)
Method: as §1, §2, §3, §4

[6] = test system: A2780cis (human ovarian cancer cells, cisplatin-resistant cells); experiment: Anticancer activity, WST-8 viable cell assay, A2780cis; assay type: cell-based; settings: 48 hours culture, mean of three experiments, read-out: IC50 (50% cell growth inhibitory concentration)
Method: as §1, §2, §3, §4

[7] = Solubility test in aqueous surfactant solution (HPLC); settings: 150 μL surfactant (Tween 80:propylene glycol 2:1) + 850 μL 5% by mass aqueous glucose solution
Method: The solubility was determined by the following HPLC analysis.
For the HPLC analyzer, Prominence HPLC system (LC-20AD, Shimadzu Corporation) was used. For the detector, UV detector SPD-20A (Shimadzu Corporation, detection wavelength 249 nm) was used, and for the column, XR-ODS (3 mm i.d.×100 mm, particle diameter 2.2 μm) manufactured by Shimadzu Corporation was used. The mobile phase was methanol:water:TFA=90:10:0.05 (v/v), the column temperature was 40° C., and the flow rate was 0.5 mL/min.
Each of the weighed samples was placed in 150 μL of surfactants, and the mixture was stirred sufficiently. Then, 850 μL of 5% by mass aqueous glucose solution was added, and the mixture was further stirred at room temperature (25° C.). This solution was passed through a 0.2 μm membrane filter, and the filtrate was diluted 50-fold by volume with methanol:water (9:1) to obtain a preparation solution for HPLC analysis.
The prepared samples were transferred to vials, and set in an autosampler. The analysis was performed by injecting each sample by 1 μL.
Based on the relationship between the weight of the weighed sample and the area of the peak in the obtained chromatogram, the solubility of the phosphine transition metal complex was evaluated.

Molecule | pIC50 [1] | pIC50 [2] | pIC50 [3] | pIC50 [4] | pIC50 [5] | pIC50 [6] | Solubility (25° C.) [7] [mg/mL]
bis[(R,R)-1,2-bis(t-butylmethylphosphino)benzene]gold(I) chloride [Example 1] | 7.18 | 6.60 | 6.60 | 5.85 | 6.55 | 7.02 | 
CP(c1nc2ccccc2nc1P(C)C(C)(C)C)C(C)(C)C.CP(c1nc2ccccc2nc1P(C)C(C)(C)C)C(C)(C)C.[Au+].[Cl-] (stereo not shown) [Comparative Example 1, bis(2,3-bis(tert-butylmethylphosphino)quinoxaline)gold(I) chloride] |  |  |  |  |  |  | 25.5
CP(c1ccccc1P(C)C(C)(C)C)C(C)(C)C.CP(c1ccccc1P(C)C(C)(C)C)C(C)(C)C.[Au+].[Cl-] [Example 2, bis[(S,S)-1,2-bis(t-butylmethylphosphino)benzene]gold(I) chloride] | 6.24 | 6.16 | 6.28 | 5.68 | 5.96 | 6.25 | 
N.N.[Cl][Pt][Cl] [Cisplatin, cisplatin, reference compound] | 5.22 | 5.48 | 5.28 | 4.38 | 5.55 | 4.55 | 
